# US8940498B2, “Biological assays for the characterization of cells using single-cell tracking and uses thereof” (priority 2012, dated 2015)
# Where two headings read alike, the source gives them in different places.
# Tests used:
# [1] = test system: HeLa cells; conditions: for Average CQI: CQI Formula 1
# [2] = test system: HeLa cells; test: Classical clonogenic end-point assay; assay type: cell-based; conditions: 0.25 μM for 30 min
# [3] = test system: HeLa cells; test: cells; conditions: Homo sapiens, read-out: Average CQI, % of control
# [4] = HeLa cells, 0.25 μM, normalized by 200 progenitors
# [5] = exposure to non-cytotoxic doses
molecule,measurement,setting,value
"CC[C@@]1(O)C(=O)OCc2c1cc1n(c2=O)Cc2cc3ccccc3nc2-1 [CPT, camptothecin]",Average CQI,"[1]; HeLa cells, 0.1 μM",9.3
same,CQI (Formula 2),"[1]; HeLa cells, 0.25 μM",0.026
same,total MD versus control,"[1]; HeLa cells, 0.25 μM",reduced
same,Average CQI,"[1]; HeLa cells, 0.25 μM",6.2
same,DD (number of dipolar division events),[1]; [4],1059 ± 95
same,"MD (multipolar division, TD+QD+HD)",[1]; [4],27.0 ± 4.5
same,QD (number of quadripolar division events),[1]; [4],4.0 ± 1.2
same,TD (number of tripolar division events),[1]; [4],23.0 ± 3.2
same,"Total DV (total cell division, DD+TD+QD+HD)",[1]; [4],1086 ± 9.7
same,Average CQI,"[1]; HeLa cells, 1 μM",1.8
same,CD induction and cell growth suppression,"[1]; HeLa cells, at non-cytotoxic dose (0.1 μM CPT, 1 μM MNNG)",neither CD induction nor cell growth suppression
same,non-cytotoxic dose,"[1]; HeLa cells, by average CQI",0.1 µM
same,sub-cytotoxic dose,"[1]; HeLa cells, by average CQI",0.25 µM
same,cell survival,[2],95%
same,activity at 0.1 µM,[3],102%
same,activity at 0.25 µM,[3],60%
same,activity at 1 µM,[3],22%
[Cd] [cadmium],frequency of cells entering MD versus control cell populations,[1]; [5],more frequently found than control cell populations
C=O [formaldehyde],frequency of cells entering MD versus control cell populations,[1],more frequently found than control cell populations
same,non-cytotoxic dose,[1]; human,0.002 to 0.18 µM
CC(=O)Nc1ccc(O)cc1 [acetaminophen],frequency of cells entering MD versus control cell populations,[1],not observed
arsenic acid,frequency of cells entering MD versus control cell populations,[1]; [5],more frequently found than control cell populations
CC(C)Cc1ccc(C(C)C(=O)O)cc1 (centres unmarked) [ibuprofen],frequency of cells entering MD versus control cell populations,[1]; [5],not observed
